From the supplement of paper PMC10307832

Key:
Assay in all cases: relative viability (nuclei count vs DMSO), 5 days (fraction); higher = more cells survive
[1] = compound: Cc1nc(C(=O)NCC(=O)O)c(O)c2ccc(Oc3ccccc3)cc12 [FG-4592] + CS(=O)(=O)CCNCc1ccc(-c2ccc3ncnc(Nc4ccc(OCc5cccc(F)c5)c(Cl)c4)c3c2)o1 [Lapatinib] (partner 2 µM)
Method in brief: (§1)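 Medians of duplicate plates are given as relative viability. That measure is the nuclei count in treated wells divided by the count in vehicle wells. Counts were taken on 4× images of lung cancer cell lines in 1536-well plates, 5 days after pin-tool dosing the day after seeding with one drug alone or a fixed anchor-drug dose plus five library-drug doses (not always all listed) in √10 steps.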

[2] = compound: Cc1nc(C(=O)NCC(=O)O)c(O)c2ccc(Oc3ccccc3)cc12 [FG-4592] + Cc1nc(NC(=O)N2CCC[C@H]2C(N)=O)sc1-c1ccnc(C(C)(C)C(F)(F)F)c1 [Alpelisib] (partner 2 µM)
Method in brief: as §1

[3] = compound: CC1=CC(=C(N1C2=CC=C(C=C2)Cl)C)C(=O)CN3CCCCC3 [IU1-47] + CS(=O)(=O)CCNCc1ccc(-c2ccc3ncnc(Nc4ccc(OCc5cccc(F)c5)c(Cl)c4)c3c2)o1 [Lapatinib] (partner 2 µM)
Method in brief: as §1

[4] = compound: CC1=CC(=C(N1C2=CC=C(C=C2)Cl)C)C(=O)CN3CCCCC3 [IU1-47] + CS(=O)(=O)N1CCN(Cc2cc3nc(-c4cccc5[nH]ncc45)nc(N4CCOCC4)c3s2)CC1 [Pictilisib] (partner 1 µM)
Method in brief: as §1

With Calu-6 the relative viability ([1]; first compound 0.08 µM) was 1.01, the relative viability ([1]; first compound 0.253 µM) was 1 and the relative viability ([1]; first compound 0.8 µM) was 1.12. The relative viability ([1]; first compound 2.53 µM) was 1.08, the relative viability ([1]; first compound 8 µM) was 1.07 and the relative viability ([2]; first compound 0.08 µM) was 0.952. It also gave a relative viability ([2]; first compound 0.253 µM) of 0.846, a relative viability ([2]; first compound 0.8 µM) of 1.12 and a relative viability ([2]; first compound 2.53 µM) of 0.985. It also gave a relative viability ([2]; first compound 8 µM) of 0.969, a relative viability ([3]; first compound 0.08 µM) of 1.14 and a relative viability ([3]; first compound 0.253 µM) of 1.23. For the same cell line, the relative viability ([3]; first compound 0.8 µM) was 1.11, the relative viability ([3]; first compound 2.53 µM) was 1.18 and the relative viability ([3]; first compound 8 µM) was 0.94. The relative viability ([4]; first compound 0.08 µM) was 1.13, the relative viability ([4]; first compound 0.253 µM) was 1.07 and the relative viability ([4]; first compound 0.8 µM) was 0.861. It also gave a relative viability ([4]; first compound 2.53 µM) of 0.972 and a relative viability ([4]; first compound 8 µM) of 0.856.

NCI-H1993 gave a relative viability ([1]; first compound 0.08 µM) of 0.848, a relative viability ([1]; first compound 0.253 µM) of 0.885 and a relative viability ([1]; first compound 0.8 µM) of 0.744. For the same cell line, the relative viability ([1]; first compound 2.53 µM) was 0.929, the relative viability ([1]; first compound 8 µM) was 0.719 and the relative viability ([2]; first compound 0.08 µM) was 0.689. It also gave a relative viability ([2]; first compound 0.253 µM) of 0.614, a relative viability ([2]; first compound 0.8 µM) of 0.622 and a relative viability ([2]; first compound 2.53 µM) of 0.647. The relative viability ([2]; first compound 8 µM) was 0.669, the relative viability ([3]; first compound 0.08 µM) was 0.82 and the relative viability ([3]; first compound 0.253 µM) was 0.754. It also gave a relative viability ([3]; first compound 0.8 µM) of 0.741, a relative viability ([3]; first compound 2.53 µM) of 0.815 and a relative viability ([3]; first compound 8 µM) of 0.748. For the same cell line, the relative viability ([4]; first compound 0.08 µM) was 0.899, the relative viability ([4]; first compound 0.253 µM) was 0.769 and the relative viability ([4]; first compound 0.8 µM) was 0.86. The relative viability ([4]; first compound 2.53 µM) was 0.913 and the relative viability ([4]; first compound 8 µM) was 0.821.

RERF-LC-KJ was tested, and the relative viability ([1]; first compound 0.08 µM) was 0.793, the relative viability ([1]; first compound 0.253 µM) was 0.816 and the relative viability ([1]; first compound 0.8 µM) was 0.86. It also gave a relative viability ([1]; first compound 2.53 µM) of 0.899, a relative viability ([1]; first compound 8 µM) of 0.725 and a relative viability ([2]; first compound 0.08 µM) of 0.804. For the same cell line, the relative viability ([2]; first compound 0.253 µM) was 0.749, the relative viability ([2]; first compound 0.8 µM) was 0.723 and the relative viability ([2]; first compound 2.53 µM) was 0.651. For the same cell line, the relative viability ([2]; first compound 8 µM) was 0.774, the relative viability ([3]; first compound 0.08 µM) was 0.91 and the relative viability ([3]; first compound 0.253 µM) was 0.868. It also gave a relative viability ([3]; first compound 0.8 µM) of 0.873, a relative viability ([3]; first compound 2.53 µM) of 0.835 and a relative viability ([3]; first compound 8 µM) of 0.829. For the same cell line, the relative viability ([4]; first compound 0.08 µM) was 0.538, the relative viability ([4]; first compound 0.253 µM) was 0.659 and the relative viability ([4]; first compound 0.8 µM) was 0.41. It also gave a relative viability ([4]; first compound 2.53 µM) of 0.489 and a relative viability ([4]; first compound 8 µM) of 0.595.

NCI-H23 showed a relative viability ([1]; first compound 0.08 µM) of 1.09, a relative viability ([1]; first compound 0.253 µM) of 1.07 and a relative viability ([1]; first compound 0.8 µM) of 0.953. The relative viability ([1]; first compound 2.53 µM) was 0.772, the relative viability ([1]; first compound 8 µM) was 1.01 and the relative viability ([2]; first compound 0.08 µM) was 0.663. For the same cell line, the relative viability ([2]; first compound 0.253 µM) was 0.678, the relative viability ([2]; first compound 0.8 µM) was 0.772 and the relative viability ([2]; first compound 2.53 µM) was 0.679. The relative viability ([2]; first compound 8 µM) was 0.673, the relative viability ([3]; first compound 0.08 µM) was 1.04 and the relative viability ([3]; first compound 0.253 µM) was 1.05. For the same cell line, the relative viability ([3]; first compound 0.8 µM) was 1.26, the relative viability ([3]; first compound 2.53 µM) was 0.995 and the relative viability ([3]; first compound 8 µM) was 1.25. It also gave a relative viability ([4]; first compound 0.08 µM) of 0.43, a relative viability ([4]; first compound 0.253 µM) of 0.492 and a relative viability ([4]; first compound 0.8 µM) of 0.44. For the same cell line, the relative viability ([4]; first compound 2.53 µM) was 0.543 and the relative viability ([4]; first compound 8 µM) was 0.435.

With HCC-366 the relative viability ([1]; first compound 0.08 µM) was 0.89, the relative viability ([1]; first compound 0.253 µM) was 0.998 and the relative viability ([1]; first compound 0.8 µM) was 1.1. For the same cell line, the relative viability ([1]; first compound 2.53 µM) was 1.1, the relative viability ([1]; first compound 8 µM) was 1.13 and the relative viability ([2]; first compound 0.08 µM) was 0.285. The relative viability ([2]; first compound 0.253 µM) was 0.386, the relative viability ([2]; first compound 0.8 µM) was 0.408 and the relative viability ([2]; first compound 2.53 µM) was 0.377. The relative viability ([2]; first compound 8 µM) was 0.392, the relative viability ([3]; first compound 0.08 µM) was 1.04 and the relative viability ([3]; first compound 0.253 µM) was 0.938. For the same cell line, the relative viability ([3]; first compound 0.8 µM) was 1.26, the relative viability ([3]; first compound 8 µM) was 1.15 and the relative viability ([4]; first compound 0.08 µM) was 0.215. For the same cell line, the relative viability ([4]; first compound 0.253 µM) was 0.115, the relative viability ([4]; first compound 0.8 µM) was 0.149 and the relative viability ([4]; first compound 2.53 µM) was 0.137. For the same cell line, the relative viability ([4]; first compound 8 µM) was 0.145.

EMC-BAC-2 showed a relative viability ([1]; first compound 0.08 µM) of 0.853, a relative viability ([1]; first compound 0.253 µM) of 0.866 and a relative viability ([1]; first compound 0.8 µM) of 0.808. The relative viability ([1]; first compound 2.53 µM) was 0.731, the relative viability ([1]; first compound 8 µM) was 0.842 and the relative viability ([2]; first compound 0.08 µM) was 0.745. For the same cell line, the relative viability ([2]; first compound 0.253 µM) was 0.718, the relative viability ([2]; first compound 0.8 µM) was 0.705 and the relative viability ([2]; first compound 2.53 µM) was 0.764. It also gave a relative viability ([2]; first compound 8 µM) of 0.713, a relative viability ([3]; first compound 0.08 µM) of 0.947 and a relative viability ([3]; first compound 0.253 µM) of 0.944. It also gave a relative viability ([3]; first compound 0.8 µM) of 0.966, a relative viability ([3]; first compound 2.53 µM) of 0.955 and a relative viability ([3]; first compound 8 µM) of 0.879. The relative viability ([4]; first compound 0.08 µM) was 0.547, the relative viability ([4]; first compound 0.253 µM) was 0.51 and the relative viability ([4]; first compound 0.8 µM) was 0.545. For the same cell line, the relative viability ([4]; first compound 2.53 µM) was 0.572 and the relative viability ([4]; first compound 8 µM) was 0.489.

Work on NCI-H2405 yielded a relative viability ([1]; first compound 0.253 µM) of 0.733, a relative viability ([1]; first compound 0.8 µM) of 0.87 and a relative viability ([1]; first compound 2.53 µM) of 0.918. For the same cell line, the relative viability ([1]; first compound 8 µM) was 0.702, the relative viability ([2]; first compound 0.253 µM) was 0.399 and the relative viability ([2]; first compound 0.8 µM) was 0.655. It also gave a relative viability ([2]; first compound 2.53 µM) of 0.638, a relative viability ([2]; first compound 8 µM) of 0.715 and a relative viability ([3]; first compound 0.08 µM) of 1.04. It also gave a relative viability ([3]; first compound 0.253 µM) of 1.12, a relative viability ([3]; first compound 0.8 µM) of 1.1 and a relative viability ([3]; first compound 8 µM) of 1.11. It also gave a relative viability ([4]; first compound 0.08 µM) of 0.552, a relative viability ([4]; first compound 0.253 µM) of 0.49 and a relative viability ([4]; first compound 0.8 µM) of 0.524. It also gave a relative viability ([4]; first compound 8 µM) of 0.431.

Work on NCI-H358 yielded a relative viability ([1]; first compound 0.08 µM) of 0.501, a relative viability ([1]; first compound 0.253 µM) of 0.413 and a relative viability ([1]; first compound 0.8 µM) of 0.497. The relative viability ([1]; first compound 2.53 µM) was 0.437, the relative viability ([1]; first compound 8 µM) was 0.453 and the relative viability ([2]; first compound 0.08 µM) was 0.864. For the same cell line, the relative viability ([2]; first compound 0.253 µM) was 0.686, the relative viability ([2]; first compound 0.8 µM) was 0.952 and the relative viability ([2]; first compound 2.53 µM) was 0.865. The relative viability ([2]; first compound 8 µM) was 0.717, the relative viability ([3]; first compound 0.08 µM) was 0.445 and the relative viability ([3]; first compound 0.253 µM) was 0.381. The relative viability ([3]; first compound 0.8 µM) was 0.481, the relative viability ([3]; first compound 8 µM) was 0.456 and the relative viability ([4]; first compound 0.08 µM) was 0.287. The relative viability ([4]; first compound 0.253 µM) was 0.323, the relative viability ([4]; first compound 0.8 µM) was 0.352 and the relative viability ([4]; first compound 8 µM) was 0.366.
